Reference: US20250302974A1, “LECTIN-DRUG CONJUGATES” (UNICHEM LABORATORIES LIMITED, priority 2021, published 2025)
pIC50: −log10 of the molar value. Square brackets hold non-standard residues; d marks the D form. Peptide text beside a SMILES is read from it. * marks the point of attachment. Dolaproine = CO[C@@H]([C@@H]1CCCN1)[C@@H](C)C(=O)O; Dil = CC[C@H](C)[C@H](NC)[C@@H](CC(=O)O)OC; X1 = C[C@@H](N*)[C@@H](O)c1ccccc1; NMeV = CN[C@H](C(=O)O)C(C)C

How the values were obtained:
MG-63 cells = test: MTT cytotoxicity assay, MG-63 bone; type: cell-based; settings: Homo sapiens, MG-63, 48 h
Protocol: (§1) The Untreated cells were used as Control. […] Cells were incubated for 3 h at 37° C. The supernatant was aspirated.
(§2) The % Cytotoxicity was calculated using the formula: […]
(§3) Selectivity Index was calculated using the formula:
(§4) SI=IC50 in Normal cell/IC50 in cancer cell.

PA-1 cells = test: Cytotoxicity (cell titer glo, 72 h) ovarian cancer cell line PA-1; type: cell-based; settings: Homo sapiens, PA-1 cell line
Protocol: (§5) T-24 Cell line were cultured in McCoy's 5a Medium Modified supplemented with 10% FBS and the PA-1 Cell line was cultured in EMEM Media supplemented with 10% FBS. The assay was performed by plating 5,000 cells/well and incubated at 37° C. overnight. […] Each concentration was added in triplicate and media-only wells used as a control. After incubation for 72 h cell titer glow (Promega) reagent (50 μL) was added to each well and the plates shaken for 5 mins and the luminescence was recorded. Percent viability was determined by dividing luminescence of the treated well by the non-treated well and multiplying by 100. Data was analysed using non-linear regression with a logarithmic scale.
(§6) 5,000 cells/well were plated and incubated at 37° C. overnight. Conjugates/vehicle control dilutions were made in respective media and added to cells. Volume added: 50 uL to each well. […] Each concentration was analysed in triplicates. […] Cell titer glow reagent (volume: 50 uL) was added to each well, the plate was shaken for 5 mins and the luminescence was recorded. […] Percent viability was calculated by dividing the luminescence signal obtained for each treated well by the untreated well (media-only control) and multiplying by 100.

T24 Bladder = test: Cytotoxic effect by MTT assay, 48 h; settings: 48 h
Protocol: (§7) Cells were treated with Test Items at various concentrations (0.0001 μM-10 μM) for 48 h. The cells corresponding to Positive Control group were treated with Doxorubicin at a concentration ranging from 0.1 μM-100 μM. The Untreated cells were used as Control. After 48 h of incubation, the effect of Test Items on cytotoxicity of cells was determined by MTT assay, the plates were taken out and 20 μl of 5 mg/m1 of MTT 3-(4,5-dimethythiazol-2-yl)-2,5-diphenyl tetrazolium bromide solution was added to all the wells. Cells were incubated for 3 h at 37° C. The supernatant was aspirated. 150 μl of DMSO was added to each well to dissolve formazan crystals. The absorbance of each well was then read at 540 nm using Synergy HT micro plate reader.
(§8) The % Cytotoxicity was calculated using the formula:
(§9) Where, X=Absorbance of cells treated with Test Item; R=Absorbance of Control cells (Untreated cells maintained in growth medium only).
as §3, §4
(§10) Activity scores of the Selective Index values were categorized as: • Not selective (SI value ≤1) • Moderately selective (1<SI value <5) • Selective (SI value ≥5)

HT29 Colon = test: Cytotoxic effect by MTT assay, 48 h; settings: read-out: IC50 Values; HT29 Colon, after 48 h of treatment
Protocol: as §7, §8, §9, §3, §4, §10

MG-63 Bone = test: Cytotoxic effect by MTT assay, 48 h; settings: for Percent cytotoxicity wrt control: 48 h
Protocol: as §7, §8, §9, §3, §4, §10

KB Cervix = test: Cytotoxic effect by MTT assay, 48 h; settings: for Percent cytotoxicity wrt control: KB, 48 h
Protocol: as §7, §8, §9, §3, §4, §10

PA-1 Ovary = test: Cytotoxic effect by MTT assay, 48 h; settings: for Percent cytotoxicity wrt control: 48 h
Protocol: as §7, §8, §9, §3, §4, §10

PANC-1 Pancreatic = test: Cytotoxic effect by MTT assay, 48 h; settings: for Percent cytotoxicity wrt control: 48 h
Protocol: as §7, §8, §9, §3, §4, §10

AGS Stomach = test: Cytotoxic effect by MTT assay, 48 h; settings: read-out: IC50 Values; AGS Stomach, after 48 h of treatment
Protocol: as §7, §8, §9, §3, §4, §10

MDA-MB-231 Breast = test: Cytotoxic effect by MTT assay, 48 h; settings: read-out: IC50 Values; MDA-MB-231 Breast, after 48 h of treatment
Protocol: as §7, §8, §9, §3, §4, §10

A549 cells = test: MTT cytotoxicity assay, A549 lungs; type: cell-based; settings: Homo sapiens
Protocol: as §1, §2, §3, §4

PBMC = test: MTT cytotoxicity assay, PBMC normal; type: cell-based; settings: 48 h
Protocol: as §1, §2, §3, §4

T-24 cells = test: Cytotoxicity (cell titer glo, 72 h) human urinary bladder cancer cell line T-24; type: cell-based; settings: T-24 cell line
Protocol: as §5, §6

[1] = tested on: human urinary bladder cancer cell line (T-24); test: Cytotoxicity assay, cell titer glow luminescence, 72 h; type: cell-based; settings: 72 h
Protocol: as §5
(§11) 5,000 cells/well were plated and incubated at 37° C. overnight. Conjugates/vehicle control dilutions were made in respective media and added to cells. Volume added: 50 uL to each well. Starting treatment concentration was 1 uM for Conjugate of formula 16 and 18, and control SEQ ID NO: 5 alone and 10% for vehicle control (1×PBS with 20% DMA) and then diluted 10-fold down for a total of 11 treatment dilutions. Each concentration was analysed in triplicates. Media-only wells was used as a control to calculate percent viability. Cell titer glow reagent (volume: 50 uL) was added to each well, the plate was shaken for 5 mins and the luminescence was recorded. Drug Treatment Time: 72 hours. Percent viability was calculated by dividing the luminescence signal obtained for each treated well by the untreated well (media-only control) and multiplying by 100.

[2] = tested on: ovarian cancer cell line (PA-1); test: as above; type: cell-based; settings: 72 h
Protocol: as §5, §11

MDA-MB-231 cells = test: MTT cytotoxicity assay, MDA-MB-231 breast; type: cell-based; settings: Homo sapiens
Protocol: as §1, §2, §3, §4

PBMC Normal = test: Cytotoxic effect by MTT assay, 48 h; settings: for Percent cytotoxicity wrt control: PBMC, 48 h
Protocol: as §7, §8, §9

In the case of `CC[C@H](C)[C@@H]([C@@H](CC(=O)N1CCC[C@H]1[C@H](OC)[C@@H](C)C(=O)N[C@H](C)[C@@H](O)c1ccccc1)OC)N(C)C(=O)[C@@H](NC(=O)[C@@H](NC)C(C)C)C(C)C` [MMAE, monomethyl auristatin E] (H-[NMeV]V[Dil][Dolaproine]-X1), the pIC50 (MG-63 cells) was 10.00, the pIC50 (PA-1 cells) was 8.49 and the “Percent cytotoxicity wrt control” value (T24 Bladder; T24, 0.0001 μM) was 51.8%. For the same compound, the “Percent cytotoxicity wrt control” value (T24 Bladder; T24, 0.001 μM) was 51.1%, the “Percent cytotoxicity wrt control” value (T24 Bladder; T24, 0.1 μM) was 44.4% and the “Percent cytotoxicity wrt control” value (T24 Bladder; T24, 1 μM) was 44.4%. The pIC50 (HT29 Colon) was 7.30, the “Percent cytotoxicity wrt control” value (MG-63 Bone; MG-63, 0.0001 μM) was 81.7% and the “Percent cytotoxicity wrt control” value (MG-63 Bone; MG-63, 0.001 μM) was 85.5%. For the same compound, the “Percent cytotoxicity wrt control” value (MG-63 Bone; MG-63, 0.01 μM) was 86.2%, the “Percent cytotoxicity wrt control” value (MG-63 Bone; MG-63, 0.1 μM) was 87.4% and the “Percent cytotoxicity wrt control” value (MG-63 Bone; MG-63, 1 μM) was 85.3%. For the same compound, the “Percent cytotoxicity wrt control” value (MG-63 Bone; MG-63, 10 μM) was 82.3%, the pIC50 (MG-63 Bone; read-out: IC50 Values, MG-63 Bone, after 48 h of treatment) was no less than 10.00 and the “Percent cytotoxicity wrt control” value (KB Cervix; 0.0001 μM) was 90.5%. The “Percent cytotoxicity wrt control” value (KB Cervix; 0.01 μM) was 96.1%, the “Percent cytotoxicity wrt control” value (KB Cervix; 0.1 μM) was 96.3% and the “Percent cytotoxicity wrt control” value (KB Cervix; 1 μM) was 96.2%. The “Percent cytotoxicity wrt control” value (KB Cervix; 10 μM) was 96.3%, the pIC50 (KB Cervix; read-out: IC50 Values, KB Cervix, after 48 h of treatment) was no less than 10.00 and the “Percent cytotoxicity wrt control” value (PA-1 Ovary; PA-1, 0.0001 μM) was 13.4%. For the same compound, the “Percent cytotoxicity wrt control” value (PA-1 Ovary; PA-1, 0.001 μM) was 57.5%, the “Percent cytotoxicity wrt control” value (PA-1 Ovary; PA-1, 0.01 μM) was 50% and the “Percent cytotoxicity wrt control” value (PA-1 Ovary; PA-1, 0.1 μM) was 57.5%. For the same compound, the “Percent cytotoxicity wrt control” value (PA-1 Ovary; PA-1, 1 μM) was 61.7%, the “Percent cytotoxicity wrt control” value (PA-1 Ovary; PA-1, 10 μM) was 58.3% and the pIC50 (PA-1 Ovary; read-out: IC50 Values, PA-1 Ovary, after 48 h of treatment) was 7.52. The “Percent cytotoxicity wrt control” value (PANC-1 Pancreatic; PANC-1, 0.0001 μM) was 38.1%, the “Percent cytotoxicity wrt control” value (PANC-1 Pancreatic; PANC-1, 0.001 μM) was 41% and the “Percent cytotoxicity wrt control” value (PANC-1 Pancreatic; PANC-1, 0.01 μM) was 64.1%. For the same compound, the “Percent cytotoxicity wrt control” value (PANC-1 Pancreatic; PANC-1, 0.1 μM) was 67.7%, the “Percent cytotoxicity wrt control” value (PANC-1 Pancreatic; PANC-1, 10 μM) was 69.7% and the pIC50 (PANC-1 Pancreatic; read-out: IC50 Values, PANC-1 Pancreatic, after 48 h of treatment) was 8.82. For the same compound, the pIC50 (AGS Stomach) was 5.81, the pIC50 (MDA-MB-231 Breast) was less than 5.00 and the pIC50 (A549 cells; A549, 48 h) was 8.00. The cytotoxicity at 0.0001 µM (A549 cells; A549, 0.0001 μm, 48 h, read-out: Percent cytotoxicity wrt control) was 27.9%, the cytotoxicity at 0.001 µM (A549 cells; A549, 0.001 μm, 48 h, read-out: Percent cytotoxicity wrt control) was 39.3% and the cytotoxicity at 0.01 µM (A549 cells; A549, 0.01 μm, 48 h, read-out: Percent cytotoxicity wrt control) was 43.5%. The cytotoxicity at 0.1 µM (A549 cells; A549, 0.1 μm, 48 h, read-out: Percent cytotoxicity wrt control) was 58.8%, the cytotoxicity at 1 µM (A549 cells; A549, 1 μm, 48 h, read-out: Percent cytotoxicity wrt control) was 83.6% and the cytotoxicity at 10 µM (A549 cells; A549, 10 μm, 48 h, read-out: Percent cytotoxicity wrt control) was 75.8%. It also gave a pIC50 (PBMC; PBMC (normal)) of less than 5.00, a cytotoxicity at 0.0001 µM (PBMC; PBMC, 0.0001 μm, read-out: Percent cytotoxicity wrt control) of -2.7% and a pIC50 (T-24 cells) of 9.62. It also gave a pIC50 [1] of 9.62, a pIC50 [2] of 8.49 and a pIC50 (MDA-MB-231 cells; MDA-MB-231, 48 h) of less than 5.00. It also gave a cytotoxicity at 0.0001 µM (MDA-MB-231 cells; MDA-MB-231, 0.0001 μm, 48 h, read-out: Percent cytotoxicity wrt control) of 11.3%, a cytotoxicity at 0.001 µM (MDA-MB-231 cells; MDA-MB-231, 0.001 μm, 48 h, read-out: Percent cytotoxicity wrt control) of 13.3% and a cytotoxicity at 0.01 µM (MDA-MB-231 cells; MDA-MB-231, 0.01 μm, 48 h, read-out: Percent cytotoxicity wrt control) of 28.9%. The cytotoxicity at 0.1 µM (MDA-MB-231 cells; MDA-MB-231, 0.1 μm, 48 h, read-out: Percent cytotoxicity wrt control) was 23.8%, the cytotoxicity at 1 µM (MDA-MB-231 cells; MDA-MB-231, 1 μm, 48 h, read-out: Percent cytotoxicity wrt control) was 16.8% and the cytotoxicity at 10 µM (MDA-MB-231 cells; MDA-MB-231, 10 μm, 48 h, read-out: Percent cytotoxicity wrt control) was 26.4%. For the same compound, the “Percent cytotoxicity wrt control” value (PBMC Normal; 0.0001 μM) was −2.7%, the “Percent cytotoxicity wrt control” value (PBMC Normal; 0.001 μM) was 29.8% and the “Percent cytotoxicity wrt control” value (PBMC Normal; 0.01 μM) was 34.3%. For the same compound, the “Percent cytotoxicity wrt control” value (PBMC Normal; 0.1 μM) was 34.1%, the “Percent cytotoxicity wrt control” value (PBMC Normal; 1 μM) was 26.6% and the “Percent cytotoxicity wrt control” value (PBMC Normal; 10 μM) was 32.5%. It also gave a pIC50 (PBMC Normal; read-out: IC50 Values, PBMC Normal, after 48 h of treatment) of less than 5.00.
